The structures appear in SMILES notation. In brackets after ≈: the same amount, converted by molar mass.

Data set [1] is described as follows: Solubility of the compound in FASSIF at 1 mg incubated for 4 hrs by UPLC-MS analysis. The format is physicochemical.
The nature of data set [2]: Kinetic solubility of the compound in pH 7.4 phosphate buffered saline. To be noted: read-out: Kinetic_solubility. It is filed as physicochemical.
The nature of data set [3]: Chromatographic lipophilicity, log D of compound in PBS ay pH 7.4 by UV-HPLC analysis. The format is physicochemical. The note with it: for chromatographic logD: PBS.
Data set [4] has as its target Albumin (Homo sapiens, UniProt P02768). Kind of data set: Binding affinity to HSA by HPLC analysis. To be noted: isolated protein. It is filed as ADME.
The nature of data set [5]: Protection Index, ratio of CC50 for human HepG2 cells to MIC for Mycobacterium tuberculosis H37Rv. It is filed as toxicity. To be noted: read-out: PI.
Data set [6] has as its system Mycobacterium tuberculosis. Kind of data set: Antitubercular activity against Mycobacterium tuberculosis H37Rv incubated for 6 days by resazurin dye based fluorescence assay. It is filed as functional. The note with it: 144 h.
The nature of data set [7]: Cytotoxicity against human HepG2 cells incubated for 48 hrs by CellTiter Glo assay. It is filed as cell-based.
The target of data set [8] is Voltage-gated inwardly rectifying potassium channel KCNH2 (Homo sapiens, UniProt Q12809). Kind of data set: Inhibition of human ERG.
Data set [9] is described as follows: Permeability of the compound in pH 7.05 phosphate buffer incubated for 3 hrs by artificial membrane permeability assay based LCMS analysis. To be noted: PAMPA, read-out: permeability. The format is ADME.
A short description of data set [10]: Intrinsic clearance in human liver microsomes at 0.5 uM measured up to 30 mins in presence of NADPH by UPLC/MS/MS analysis. To be noted: 0.5 h. The format is ADME, Microsome.
Data set [11] relates to Mycobacterium tuberculosis. Briefly: Antitubercular activity against Mycobacterium tuberculosis H37Rv infected in C57BL/6 mouse assessed as reduction in bacterial load in lungs at 200 mg/kg administered once daily starting from 5 days post infection for 4 consecutive days and measured on day 9. The format is functional.
Data set [12] has as its system Mycobacterium tuberculosis. Briefly: Antitubercular activity against Mycobacterium tuberculosis H37Rv infected in C57BL/6 mouse assessed as reduction in bacterial load in lungs at 30 mg/kg administered once daily starting from 5 days post infection for 4 consecutive days and measured on day 9. It is filed as functional.

Chain of Voltage-gated inwardly rectifying potassium channel KCNH2 (Q12809 whole entry): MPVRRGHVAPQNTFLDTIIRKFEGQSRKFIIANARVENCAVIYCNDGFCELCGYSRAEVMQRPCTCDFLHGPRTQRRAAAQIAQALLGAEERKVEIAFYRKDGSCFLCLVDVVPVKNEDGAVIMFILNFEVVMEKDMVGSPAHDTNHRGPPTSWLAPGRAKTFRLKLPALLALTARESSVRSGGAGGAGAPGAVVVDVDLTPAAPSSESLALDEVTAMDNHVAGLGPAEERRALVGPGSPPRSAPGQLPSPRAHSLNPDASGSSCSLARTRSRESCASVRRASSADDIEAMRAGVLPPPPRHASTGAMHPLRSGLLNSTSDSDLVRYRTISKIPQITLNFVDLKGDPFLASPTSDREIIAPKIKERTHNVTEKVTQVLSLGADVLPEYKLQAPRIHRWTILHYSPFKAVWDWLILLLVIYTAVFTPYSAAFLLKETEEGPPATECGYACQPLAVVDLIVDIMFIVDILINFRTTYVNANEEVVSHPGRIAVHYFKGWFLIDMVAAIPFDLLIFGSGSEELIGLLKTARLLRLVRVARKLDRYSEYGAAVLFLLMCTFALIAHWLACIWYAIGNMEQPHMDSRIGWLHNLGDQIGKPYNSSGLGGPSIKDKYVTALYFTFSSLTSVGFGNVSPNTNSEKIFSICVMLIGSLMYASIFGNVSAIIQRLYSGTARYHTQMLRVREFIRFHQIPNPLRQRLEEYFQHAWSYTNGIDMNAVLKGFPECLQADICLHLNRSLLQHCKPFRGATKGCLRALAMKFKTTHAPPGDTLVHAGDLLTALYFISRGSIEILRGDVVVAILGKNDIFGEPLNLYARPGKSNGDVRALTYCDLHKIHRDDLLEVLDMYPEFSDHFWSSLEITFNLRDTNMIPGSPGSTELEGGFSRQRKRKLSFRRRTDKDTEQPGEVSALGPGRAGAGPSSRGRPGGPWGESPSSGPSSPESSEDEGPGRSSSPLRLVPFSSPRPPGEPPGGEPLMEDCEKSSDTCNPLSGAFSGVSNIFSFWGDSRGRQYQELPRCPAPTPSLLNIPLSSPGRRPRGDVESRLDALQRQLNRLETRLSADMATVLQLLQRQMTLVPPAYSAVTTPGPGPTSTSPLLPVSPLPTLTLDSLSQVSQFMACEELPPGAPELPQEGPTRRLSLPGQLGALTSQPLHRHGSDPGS
Chain of Albumin (P02768 whole entry): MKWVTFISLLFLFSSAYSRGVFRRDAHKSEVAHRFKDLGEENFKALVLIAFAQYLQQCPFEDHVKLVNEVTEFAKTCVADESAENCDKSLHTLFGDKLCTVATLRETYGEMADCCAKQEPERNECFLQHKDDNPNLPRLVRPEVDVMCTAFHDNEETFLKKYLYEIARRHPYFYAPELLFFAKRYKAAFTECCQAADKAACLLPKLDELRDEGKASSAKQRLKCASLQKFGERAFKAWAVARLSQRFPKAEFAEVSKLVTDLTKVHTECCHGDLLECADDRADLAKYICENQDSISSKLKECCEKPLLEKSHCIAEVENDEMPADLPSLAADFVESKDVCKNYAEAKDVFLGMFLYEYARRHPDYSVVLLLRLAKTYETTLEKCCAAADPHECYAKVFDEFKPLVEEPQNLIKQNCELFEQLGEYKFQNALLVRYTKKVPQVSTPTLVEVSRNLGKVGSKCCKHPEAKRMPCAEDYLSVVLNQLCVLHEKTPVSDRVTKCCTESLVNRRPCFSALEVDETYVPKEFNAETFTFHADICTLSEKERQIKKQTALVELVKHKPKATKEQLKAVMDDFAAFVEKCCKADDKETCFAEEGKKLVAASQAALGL

Consider `Cc1c(CN2CCOCC2)cc(-c2ccc(C(C)C)cc2)n1-c1ccc(F)cc1`, for which the solubility at 4 h in [1] came out at 5 µg/mL (≈ 12.7 µM). The solubility kinetic in [2] was below 1 µM. The chromatographic logD in data set [3] is 8.1. In data set [4], this molecule registered an Activity of 98.37%. Further, in [5], the selectivity ratio amounted to 333. The same molecule returned an MIC in [6] of 0.12 µM (≈ 0.0471 µg/mL).

In data set [7], `CC(C)c1ccc(-c2cc(CN3CC[Si](C)(C)CC3)nn2C2CCCCC2)cc1` registered a CC50 at 48 h of 12.6 µM. Further, the solubility kinetic in data set [2] is 46 µM (≈ 18.8 µg/mL). The molecule also had an Activity in [4] of 97.35%. For the same molecule, the selectivity ratio in data set [5] was 315. Besides, in data set [6], the MIC worked out at 0.04 µM (≈ 0.0164 µg/mL). In addition, 8 µM corresponded to half-maximal inhibition in data set [8] (IC50).

As to `COC1CCN(Cc2cc(-c3ccc(C(F)(F)F)cc3)n(-c3ccc(F)cc3)n2)CC1`, the Papp at 3 h in [9] is 17 ×10⁻⁶ cm/s. The molecule further showed a CC50 at 48 h in [7] of 31.6 µM. Moreover, in [2], the solubility kinetic came to 258 µM (≈ 112 µg/mL). The molecule further showed a chromatographic logD in [3] of 6.67. This molecule registered an Activity in data set [4] of 96.47%. Moreover, the selectivity ratio in [5] worked out at 105. This molecule also yielded an MIC in data set [6] of 0.3 µM (≈ 0.13 µg/mL). Moreover, 3.2 µM corresponded to half-maximal inhibition in data set [8] (IC50).

`CC(C)c1ccc(-c2cc(CN3CCOCC3)nn2C2CCC2)cc1` yielded a solubility at 4 h in [1] of 139 µg/mL (≈ 409 µM). Also, the Papp at 3 h in data set [9] is 61 ×10⁻⁶ cm/s. The CLH in [10] turned out to be 2.8 mL/min/g. Moreover, it took 50 µM to reach half-maximal cytotoxicity in data set [7] (CC50 at 48 h). Also, the solubility kinetic in [2] lay within 305 to 306 µM. In [3], this molecule showed a chromatographic logD of 7.37. Also, the Activity in data set [4] was 96.72%; in data set [11], 0.3 log10CFU. For the same molecule, the selectivity ratio in [5] was found to be 125. Moreover, the lowest concentration to inhibit growth in data set [6] (MIC) was 0.4 µM (≈ 0.136 µg/mL). In addition, the IC50 in data set [8] came out at 32 µM.

In turn, `C[Si]1(C)CCN(Cc2cc(-c3ccc(C(F)(F)F)cc3)n(C3CCCCC3)n2)CC1` showed a CC50 at 48 h in data set [7] of 12.6 µM. The solubility kinetic in data set [2] is 69 µM (≈ 30.1 µg/mL). In data set [3], the chromatographic logD is 8.49. In addition, the Activity in data set [4] was determined as 96.32%. In [5], the selectivity ratio turned out to be 180. For the same molecule, the MIC in [6] turned out to be 0.07 µM (≈ 0.0305 µg/mL). The molecule further came in with an IC50 in [8] of 2.5 µM.

Turning to `COC1CCN(Cc2cc(-c3ccc(C(C)C)cc3)n(-c3ccc(F)cc3)n2)CC1`, the Papp at 3 h in data set [9] came out at 44 ×10⁻⁶ cm/s. For the same molecule, the CC50 at 48 h in [7] worked out at 31.6 µM. Also, the solubility kinetic in data set [2] stood at 152 µM (≈ 61.9 µg/mL). This molecule also came in with a chromatographic logD in [3] of 7.31. For the same molecule, the Activity in [4] is listed as 96.42%; in [11], 1.5 log10CFU. Further, the selectivity ratio in data set [5] came to 105. The same molecule showed an MIC in data set [6] of 0.3 µM (≈ 0.122 µg/mL). For the same molecule, the half-maximal inhibitory concentration (IC50) in data set [8] stood at 6.31 µM.

`CC(C)c1ccc(-c2cc(CN3CCOCC3)nn2C2CCCCC2)cc1`: the solubility at 4 h in data set [1] worked out at 100 µg/mL (≈ 272 µM). In addition, in data set [9], the Papp at 3 h amounted to 35 ×10⁻⁶ cm/s. Also, the CLH in [10] is 3.4 mL/min/g. This molecule came in with a CC50 at 48 h in data set [7] of 63.1 µM. For the same molecule, the solubility kinetic in data set [2] worked out at 78.5 µM (≈ 28.9 µg/mL). The chromatographic logD in data set [3] is 8.29. The Activity in data set [4] was found to be 97.11%; in [11], 0.4 log10CFU. In addition, in data set [5], the selectivity ratio is 158. In [6], this molecule registered an MIC of 0.4 µM (≈ 0.147 µg/mL). The same molecule came in with a concentration for half-maximal inhibition (IC50) in data set [8] above 50 µM.

Molecule `C[Si]1(C)CCN(Cc2cc(-c3ccc(C(F)(F)F)cc3)n(-c3ccc(F)cc3)n2)CC1` came in with a 50% cytotoxic concentration (CC50) at 48 h in data set [7] of 16 µM. The solubility kinetic in data set [2] was 53 µM (≈ 23.7 µg/mL). In [3], this molecule had a chromatographic logD of 8.13. In data set [4], the Activity is recorded as 96.65%. The minimal inhibitory concentration (MIC) in data set [6] was 0.02 µM (≈ 0.00895 µg/mL).

As for `CC(C)c1ccc(-c2cc(CN3CCN(c4ccccn4)CC3)nn2C2CCCCC2)cc1`, the Papp at 3 h in data set [9] is below 0.3 ×10⁻⁶ cm/s. The molecule further registered a CC50 at 48 h in data set [7] of 40 µM. Moreover, the solubility kinetic in [2] is 15 µM (≈ 6.65 µg/mL). In addition, the log distribution coefficient (logD) in [3] (buffer) came to 9.83. This molecule registered an Activity in data set [4] of 98.41%. Moreover, in data set [5], the selectivity ratio turned out to be 80. The molecule also gave a minimal inhibitory concentration (MIC) in [6] of 0.5 µM (≈ 0.222 µg/mL). Besides, in data set [8], the IC50 was above 50 µM.

Take `CC(C)c1ccc(-c2cc(CN3CC[Si](C)(C)CC3)nn2-c2ccc(F)cc2)cc1`: the CC50 at 48 h in data set [7] was 12.6 µM. Also, the solubility kinetic in data set [2] is 41 µM (≈ 17.3 µg/mL). The chromatographic logD in data set [3] was determined as 8.82. For the same molecule, the Activity in data set [4] was determined as 97.49%. Besides, in [5], the selectivity ratio was 1360. In addition, the MIC in [6] worked out at 0.00925 µM (≈ 0.0039 µg/mL). In addition, the midpoint of inhibition in data set [8], the IC50, lay at 2 µM.

Consider `CC(C)c1ccc(-c2cc(CN3CCN(c4ccccn4)CC3)nn2-c2ccc(F)cc2)cc1`, for which, in data set [9], the Papp at 3 h was below 3 ×10⁻⁶ cm/s. It took 64 µM to reach half-maximal cytotoxicity in data set [7] (CC50 at 48 h). Further, the solubility kinetic in data set [2] stood at 6 µM (≈ 2.73 µg/mL). For the same molecule, the chromatographic logD in data set [3] turned out to be 8.76. In [4], this molecule came in with an Activity of 98.45%. Also, the selectivity ratio in data set [5] was found to be 128. In [6], this molecule had a minimal inhibitory concentration (MIC) of 0.5 µM (≈ 0.228 µg/mL). The molecule also returned an IC50 in [8] of 25.1 µM.

In the case of `COc1c(N2C[C@@H]3CCCN[C@@H]3C2)c(F)cc2c(=O)c(C(=O)O)cn(C3CC3)c12` [MOXIFLOXACIN], the Activity in data set [12] is on record as 3.5 log10CFU.

These data come from ChEMBL document CHEMBL4304832, “Novel Pyrazole-Containing Compounds Active against Mycobacterium tuberculosis” (ACS Med Chem Lett, 2019).
